Legend:
P. falciparum 3D7 = experiment: 3-day SYBR Green I growth inhibition assay (GIA), strain 3D7; type: cell-based, Plasmodium falciparum; details: 3-day SYBR Green I GIA, drug-sensitive strain 3D7; read-out: Antiplasmodial activity EC50, 3D7
Protocol: (§1) A 3-day SYBR Green I inhibition EC50 assay was performed as described previously. Briefly, highly synchronized ring-stage parasites by 5% sorbitol (1% parasitemia and 2% hematocrit) were incubated in a 96-well plate with compounds in a total volume of 200 μL. […] The parasites were cultured for 72 h before SYBR Green I staining as described above. The EC50 was calculated by GraphPad Prism. DHA was used as a positive control, and the final concentration of DMSO was 1%.

P. falciparum Dd2 = experiment: 3-day SYBR Green I GIA, multidrug-resistant strain Dd2; type: cell-based, Plasmodium falciparum; details: 3-day SYBR Green I GIA, multidrug-resistant strain Dd2; read-out: Antiplasmodial activity EC50, Dd2
Protocol: as §1

HepG2 cells = experiment: In vitro cytotoxicity analysis (CellTiter-Glo), HepG2; details: for EC50: read-out: Cytotoxicity EC50, HepG2, 72 h, CellTiter-Glo
Protocol: (§2) In all, 1% DMSO was used as a negative control. The inhibition of each drug was normalized to that of the DMSO control. EC50 was calculated by GraphPad Prism. Three independent assays with two technical replicates each time were conducted in this experiment.

293T cells = experiment: In vitro cytotoxicity analysis (CellTiter-Glo), 293T; details: for EC50: read-out: Cytotoxicity EC50, 293T, 72 h, CellTiter-Glo
Protocol: as §2

| Structure (SMILES) | EC50 (P. falciparum 3D7) | EC50 (P. falciparum Dd2) | Selectivity index for HepG2 (EC50 HepG2/EC50 3D7) (HepG2 cells) | EC50 (HepG2 cells) | Selectivity index for 293T (EC50 293T/EC50 3D7) (293T cells) | EC50 (293T cells) |
| --- | --- | --- | --- | --- | --- | --- |
| Cl.Cn1cc(CN2CCC3(CCCN3c3ncc(C(=O)NO)cn3)CC2)c2ccccc21 [JX21019] | 45.2 ± 1.2 nM | 38.7 ± 0.6 nM | 19 | 875 ± 70 nM | 22 | 1000 ± 208 nM |
| Cl.Cn1cc(CN2CCC3(CC2)CCN(c2ncc(C(=O)NO)cn2)CC3)c2ccccc21 [JX21010] | 23.4 ± 2.4 nM | 31.1 ± 4.6 nM | 39 | 904 ± 18 nM | 94 | 2210 ± 226 nM |
| Cl.O=C(NO)c1cnc(N2CCC3(CCN(Cc4ccccc4)C3)C2)nc1 (stereo not shown) [JX21105] | 17.8 ± 0.5 nM | 28.6 ± 1.8 nM | 68 | 1200 ± 68 nM | 101 | 1790 ± 37 nM |
| CN(Cc1cn(C)c2ccccc12)C1CCN(c2ncc(C(=O)NO)cn2)CC1.Cl [JX21005] | 73.6 ± 3.5 nM | 108 ± 5.6 nM | 9 | 643 ± 36 nM | 27 | 1980 ± 407 nM |
| Cl.Cn1cc(CN2CCC3(CCN(c4ncc(C(=O)NO)cn4)C3)C2)c2ccc(F)cc21 (stereo not shown) [JX21106] | 2 ± 0.9 nM | 3.6 ± 0.08 nM | 88 | 178 ± 4 nM | 198 | 402 ± 96 nM |
| Cl.O=C(NO)c1cnc(N2CCC3(CCN(Cc4ccc(-c5ccccc5)cc4)C3)C2)nc1 (stereo not shown) [JX21116] | 21.7 ± 0.2 nM | 33.9 ± 0.3 nM | 137 | 2960 ± 152 nM | 111 | 2410 ± 118 nM |
| O=C(NO)c1cnc(N2CCN(S(=O)(=O)c3ccc4ccccc4c3)CC2)nc1 [R306465, reference compound] | 23 nM |  | 38 | 877 nM | 287 | 6600 nM |
| Cl.O=C(NO)c1cnc(N2CCC3(CCN(CC4CCCC4)C3)C2)nc1 (stereo not shown) [JX21121] | 92.5 ± 11.3 nM | 61.6 ± 4.8 nM | > 108 | > 10000 nM | > 108 | > 10000 nM |
| Cl.Cn1cc(CN2CCC(CNc3ncc(C(=O)NO)cn3)CC2)c2ccccc21 [JX21008] | 13.1 ± 0.6 nM | 23.6 ± 0.4 nM | 52 | 688 ± 10 nM | 19 | 253 ± 89 nM |
| Cl.Cn1cc(CN2CCN(c3ncc(C(=O)NO)cn3)CC2)c2ccccc21 [JX21003] | 10.9 ± 0.8 nM | 15.3 ± 0.4 nM | 4 | 44 ± 7 nM | 4 | 47 ± 21 nM |
| Cl.O=C(NO)c1cnc(N2CCC3(CCN(Cc4ccco4)C3)C2)nc1 (stereo not shown) [JX21111] | 45.5 ± 3.3 nM | 34 ± 2.5 nM | 24 | 1100 ± 18 nM | 50 | 2260 ± 286 nM |
| Cl.O=C(NO)c1cnc(N2CCC3(CCN(Cc4cccc5ccccc45)C3)C2)nc1 (stereo not shown) [JX21125] | 6 ± 0.4 nM | 4.9 ± 0.7 nM | 136 | 815 ± 48 nM | 207 | 1240 ± 185 nM |
| Cl.Cn1cc(CNC2CCN(c3ncc(C(=O)NO)cn3)CC2)c2ccccc21 [JX21004] | 32.9 ± 0.9 nM | 61 ± 0.4 nM | 9 | 294 ± 57 nM | 16 | 519 ± 112 nM |
| Cl.O=C(NO)c1cnc(N2CCC3(CCN(Cc4ccc5ncccc5c4)C3)C2)nc1 (stereo not shown) [JX21137] | 7 ± 0.4 nM | 9.6 ± 0.5 nM | 179 | 1250 ± 190 nM | 254 | 1770 ± 28 nM |
| Cl.Cn1cc(CN2CCC3(CCN(c4ncc(C(=O)NO)cn4)C3)C2)c2ccc(Cl)cc21 (stereo not shown) [JX21102] | 4.2 ± 0.7 nM | 2.4 ± 0.2 nM | 123 | 514 ± 22 nM |  | 1670 ± 110 nM |
| Cl.O=C(NO)c1cnc(N2CCC3(CCNC3)C2)nc1 (stereo not shown) [JX21131] | 40.4 ± 9.2 nM | 20.7 ± 2.4 nM | > 248 | > 10000 nM | > 248 | > 10000 nM |
| Cl.Cn1cc(CNC2CCC(Nc3ncc(C(=O)NO)cn3)CC2)c2ccccc21 (stereo not shown) [JX21022] | 151 ± 2.7 nM | 125 ± 4.5 nM | > 66 | > 10000 nM | > 66 | > 10000 nM |
| Cl.O=C(NO)c1cnc(N2CCC3(CCN(Cc4ccc5ccccc5n4)C3)C2)nc1 (stereo not shown) [JX21143] | 7.9 ± 1 nM | 3.1 ± 0.3 nM | 49 | 388 ± 58 nM | 368 | 2910 ± 655 nM |
| Cl.O=C(NO)c1cnc(N2CCC3(CCN(Cc4ccsc4)C3)C2)nc1 (stereo not shown) [JX21120] | 18.6 ± 3.9 nM | 23.2 ± 1.2 nM | 114 | 2120 ± 165 nM | 211 | 3930 ± 374 nM |
| Cl.Cn1cc(CN2CCC3(CC2)CN(c2ncc(C(=O)NO)cn2)C3)c2ccccc21 [JX21013] | 79.2 ± 2.4 nM | 44 ± 10 nM | > 126 | > 10000 nM | > 126 | > 10000 nM |
| Cl.O=C(NO)c1cnc(N2CCC3(CCN(Cc4cccs4)C3)C2)nc1 (stereo not shown) [JX21110] | 49.7 ± 1.1 nM | 35.4 ± 1.3 nM | 34 | 1690 ± 163 nM | 91 | 4540 ± 323 nM |
| Cl.O=C(NO)c1cnc(N2CCC3(CCN(CC4CCCCC4)C3)C2)nc1 (stereo not shown) [JX21112] | 40.4 ± 4.1 nM | 28.3 ± 3.8 nM | 62 | 2490 ± 520 nM | 15 | 607 ± 42 nM |
| Cl.O=C(NO)c1cnc(N2CCC3(CCN(Cc4coc5ccccc45)C3)C2)nc1 (stereo not shown) [JX21113] | 67.5 ± 5.3 nM | 112 ± 13.1 nM | > 148 | > 10000 nM | 45 | 3020 ± 67 nM |
| Cl.O=C(NO)c1cnc(N2CCC3(CCN(Cc4cnc5ccccn45)C3)C2)nc1 (stereo not shown) [JX21122] | 72.9 ± 10 nM | 74.4 ± 27.4 nM | > 137 | > 10000 nM | > 137 | > 10000 nM |
| Cl.O=C(NO)c1cnc(N2CCC3(CCN(Cc4ccnc5ccccc45)C3)C2)nc1 (stereo not shown) [JX21114] | 45.9 ± 11.8 nM | 76.2 ± 9.9 nM | 86 | 3930 ± 537 nM | 41 | 1859 ± 12 nM |
| Cl.O=C(NO)c1cnc(N2CCC3(CCN(Cc4cccnc4)C3)C2)nc1 (stereo not shown) [JX21119] | 53.3 ± 0.5 nM | 39 ± 4 nM | 120 | 6420 ± 540 nM | 131 | 6998 ± 57 nM |

Source: publication PMC7733455, “A novel multistage antiplasmodial inhibitor targeting Plasmodium falciparum histone deacetylase 1” (Cell Discovery, 2020)
